Results published in PubChem BioAssay (NCI).
Where “and” joins values, the source holds several entries; their conditions need not be identical. Equal values may be shown once.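 Interpolation was linear, between the two tested concentrations surrounding the appropriate level; five concentrations were tested over 48 hours in 96-well plates. The concentration for 50% growth inhibition is given as GI50. TGI: total growth inhibition.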

Tests used:
Assay in all cases: DTP human tumour cell line panel, 48 h
786-0 renal = tested on: 786-0 renal
CCRF-CEM leukemia = tested on: CCRF-CEM leukemia
SK-MEL-5 melanoma = tested on: SK-MEL-5 melanoma
UO-31 renal = tested on: UO-31 renal
TK-10 renal = tested on: TK-10 renal
OVCAR-4 ovarian = tested on: OVCAR-4 ovarian
M14 melanoma = tested on: M14 melanoma
NCI-H460 lung = tested on: NCI-H460 lung
HOP-92 NSCLC = tested on: HOP-92 NSCLC
KM12 colon = tested on: KM12 colon

Compound | GI50 (786-0 renal) | TGI (786-0 renal) | GI50 (CCRF-CEM leukemia) | TGI (CCRF-CEM leukemia) [µM] | GI50 (SK-MEL-5 melanoma) | TGI (SK-MEL-5 melanoma) | GI50 (UO-31 renal) | TGI (UO-31 renal) | GI50 (TK-10 renal) | TGI (TK-10 renal) | GI50 (OVCAR-4 ovarian) | TGI (OVCAR-4 ovarian) | GI50 (M14 melanoma) | TGI (M14 melanoma) | GI50 (NCI-H460 lung) | TGI (NCI-H460 lung) | GI50 (HOP-92 NSCLC) | TGI (HOP-92 NSCLC) | GI50 (KM12 colon) | TGI (KM12 colon)
Cc1ncc(C(=O)Nc2ccc(CN3CCN(C)CC3)c(C(F)(F)F)c2)cc1C#Cc1cnc(NC2CC2)c2ncccc12 | 0.65 µM | 1.16 µM | 0.614 µM | 1.46 | 0.546 µM | 1.04 µM | 0.675 µM | 1.19 µM | 0.78 µM | 1.31 µM | 1.49 µM | 3.27 µM | 0.56 µM | 1.11 µM | 0.623 µM | 1.19 µM | 0.682 µM | 2.08 µM | 0.197 µM | 0.819 µM
C[n+]1c2ccccc2cc2c(CNC(CCCN=C(N)N)C(=O)O)cccc21 (stereo not given) | 0.443 µM | 2.19 µM and 1.59 µM |  | 0.555 | 5.33 µM | 17.8 µM | 10.2 µM | 2.43 µM and 22 µM | 0.967 µM | 2.07 µM and 2.35 µM |  | 23.9 µM | 2.86 µM | 15.1 µM | 3.42 µM | 5 µM and 13.9 µM | 0.327 µM | 0.991 µM |  | 1.72 µM and 1.57 µM
CC(=O)[CH-]C(C)=O.[CH2-]C.[CH2-]C.[Tl+3] | > 100 µM | > 100 µM | > 100 µM | > 100 | > 100 µM | > 100 µM | > 100 µM | > 100 µM | > 100 µM | > 100 µM | > 100 µM | > 100 µM | > 100 µM | > 100 µM | > 100 µM | > 100 µM | > 100 µM | > 100 µM | > 100 µM | > 100 µM
NC(=O)C1(N2CCCCC2)CCN(CCCC(=O)c2ccc(F)cc2)CC1 | 4.59 µM | 43.2 µM | 0.121 µM |  | 0.158 µM | 12.6 µM | 17.2 µM | > 100 µM | > 26 µM | > 100 µM | 8.72 µM | > 100 µM | 2.28 µM | 7.72 µM | 2.7 µM | > 100 µM | 0.17 µM | 51.4 µM | 1.39 µM | 67.6 µM
CCOC1Oc2ccccc2-c2oc(=O)c(Sc3ccc(C)cc3)cc21 (stereo not given) | 36.3 µM | > 100 µM | 14.5 µM | 50.2 | 26 µM | 95.3 µM | 16.4 µM | > 100 µM | 30.8 µM | > 100 µM | 25.1 µM | > 100 µM | 48.2 µM | > 100 µM | 20 µM | > 100 µM | 10.8 µM | 48.4 µM | 34.4 µM | > 100 µM
C=C(CN1CCc2ccccc2C1)c1ccc(C(=O)Nc2ccccc2N)cc1 | 1.53 µM | 11.6 µM | 1.96 µM | 12.7 | 1.61 µM | 6.86 µM | 2.87 µM | 8.8 µM | 5.74 µM | 14.8 µM | 1.92 µM | 19.4 µM | 1.73 µM | 18.4 µM | 3.06 µM | > 32 µM | 3.37 µM | 15.8 µM | 1.26 µM | 4.54 µM
OC(c1ccc(Br)cc1)(c1cccs1)C1CC1 (stereo not given) |  | 36 µM |  | 91.8 |  | 33 µM |  | 48.1 µM |  | 76.4 µM |  | 66.7 µM |  | 45.3 µM |  | 57.8 µM |  | 37.7 µM |  | 35.3 µM
Cc1ccc(S(=O)(=O)N/N=C(\c2nc3ccc([N+](=O)[O-])cc3[nH]c2=O)C(O)c2ccccc2Cl)cc1 (stereo not given) |  | > 100 µM |  | > 100 |  | > 100 µM |  | > 100 µM |  | > 100 µM |  | > 100 µM |  | > 100 µM |  | > 100 µM |  | > 100 µM |  | > 100 µM
CC(CC(=O)Nc1ccc(NC(=O)CC(C)N=NC(N)=S)cc1)N=NC(N)=S (stereo not given) |  | > 100 µM |  | > 100 |  | > 100 µM |  | > 100 µM |  | > 100 µM |  | > 100 µM |  | > 100 µM |  | > 100 µM |  | > 100 µM |  | > 100 µM
CC1(C)CC[C@H](C2=CC(=O)c3c(O)ccc(O)c3C2=O)O1 | 0.829 µM and 1.28 µM and 0.237 µM | 2.07 µM and 2.8 µM and 0.504 µM | 0.666 µM and 0.114 µM |  | 1.65 µM and 1.36 µM and 0.464 µM | 4.08 µM and 2.68 µM and 1.22 µM | 1.39 µM and 1.69 µM and 0.391 µM | 4 µM and 3.06 µM and 0.838 µM | 1.5 µM and 1.72 µM and 0.604 µM | 3.98 µM and 3.1 µM and 1.66 µM | 1.86 µM and 0.311 µM and 0.192 µM | 4.3 µM and 1.63 µM and 0.505 µM | 0.797 µM and 0.274 µM and 0.201 µM | 1.78 µM and 0.859 µM and 0.438 µM | 5.14 µM and 1.61 µM and 1.45 µM | 19.5 µM and 3.36 µM and 3.86 µM | 1.75 µM and 1.14 µM and 0.263 µM | 3.39 µM and 2.5 µM and 0.725 µM | 6.25 µM and 1.69 µM and 1.83 µM | 14.2 µM and 3.2 µM and 3.45 µM
COCCOCCOCc1n(Cc2ccc3ccccc3n2)c2ccccc2[n+]1Cc1ccc2ccccc2c1 | 1.53 µM | 3.04 µM | 0.532 µM | 2.45 | 0.357 µM | 1.16 µM | 2.29 µM | 11.2 µM | 1.04 µM | 2.42 µM | 0.385 µM | 7.42 µM | 0.414 µM | 1.94 µM | 0.424 µM | 1.56 µM | 0.207 µM | 0.718 µM | 0.388 µM | 1.63 µM
NC(=O)/C=C/C(=O)O |  | > 5000 µM |  | > 5000 |  | > 5000 µM |  | > 5000 µM |  | > 5000 µM |  | > 5000 µM |  | > 5000 µM |  | > 5000 µM |  | > 5000 µM |  | > 5000 µM
